Holding throughout (type): functional
Common to all, as to conditions: read-out: ED50 (the source's name)

In one assay the test system is A549. Description: Cytotoxicity against human A549 cells.
The subject of another assay is SK-OV-3. Description: Cytotoxicity against human SKOV3 cells.
In a further assay the test system is SK-MEL-2. Kind of assay: Cytotoxicity against human SK-MEL-2 cells.
For a further assay, the system named is XF498. Description: Cytotoxicity against human XF498 cells.
The test system of the next assay is HCT-15. Kind of assay: Cytotoxicity against human HCT15 cells.

We go through 2 compounds from ChEMBL document CHEMBL1150090, “Agastaquinone, a new cytotoxic diterpenoid quinone from Agastache rugosa” (1995).

Converted amounts (≈) assume the structure as drawn.

For the compound `COC1=C(C(C)C)C(=O)c2c(O)cc3c(c2C1=O)C=C/C(=N\O)C3(C)C`, the EC50 with A549 was 9.1 mg/L (≈ 25.6 µM); in the assay on SK-OV-3, 18.7 mg/L (≈ 52.6 µM); with SK-MEL-2 it was 11.8 mg/L (≈ 33.2 µM); in the assay with XF498, 8.5 mg/L (≈ 23.9 µM); in the assay on HCT-15, 7 mg/L (≈ 19.7 µM).

As to `COC1=C(C(C)C)C(=O)c2c(O)cc3c(c2C1=O)C=CC(=O)C3(C)C` [AGASTAQUINONE], the EC50 with A549 is 6.8 mg/L (≈ 20 µM); with SK-OV-3, 12.8 mg/L (≈ 37.6 µM); in the assay with SK-MEL-2, 4.1 mg/L (≈ 12 µM); with XF498, 1.8 mg/L (≈ 5.29 µM); in the assay with HCT-15 it was 5.2 mg/L (≈ 15.3 µM).
